Our source for the Activity values is ChEMBL document CHEMBL1926508, “Pharmacophore-based discovery of FXR agonists. Part I: Model development and experimental validation” (Bioorg Med Chem, 2011).

SMILES strings stand for the structures. Active and inactive are the calls of the source. The calls are words filed in the database; no cut-off is given here.

For the first assay, the target named is T1, Bile acid receptor (Mus musculus) (UniProt Q60641).
T1 sequence (whole entry): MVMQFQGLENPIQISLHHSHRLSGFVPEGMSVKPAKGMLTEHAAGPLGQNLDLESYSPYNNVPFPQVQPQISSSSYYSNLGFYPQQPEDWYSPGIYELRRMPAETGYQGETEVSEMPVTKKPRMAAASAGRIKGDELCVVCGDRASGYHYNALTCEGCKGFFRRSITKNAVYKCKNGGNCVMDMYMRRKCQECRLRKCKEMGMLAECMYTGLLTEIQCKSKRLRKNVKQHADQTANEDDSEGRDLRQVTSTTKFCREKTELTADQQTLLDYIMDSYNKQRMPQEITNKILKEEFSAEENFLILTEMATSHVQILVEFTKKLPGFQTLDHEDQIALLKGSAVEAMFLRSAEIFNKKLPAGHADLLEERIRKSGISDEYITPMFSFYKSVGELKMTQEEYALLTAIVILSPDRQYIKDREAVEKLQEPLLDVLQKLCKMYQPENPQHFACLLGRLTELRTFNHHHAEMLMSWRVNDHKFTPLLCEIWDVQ
Briefly: Agonist activity at mouse FXR expressed in HEK293 cells co-expressing mouse RXRalpha and ECRE-luc by luciferase reporter gene assay. In kind it is functional, cell-based.
On to `CCCCc1ccc([C@@H](CC(=O)c2ccccc2)c2ccccc2)cc1`, for which the Activity result was “Dose-dependent effect”.

Take `COc1ccc(N2CCN(C[C@H](O)COc3cc4c(c5c3CCCC5)CCCC4)CC2)cc1`: the Activity result is “Dose-dependent effect”.

The next assay has as its target T1, Bile acid receptor (Mus musculus). Description: Agonist activity at mouse FXR expressed in HEK293 cells co-expressing mouse RXRalpha and ECRE-luc up to 100 uM by luciferase reporter gene assay. In kind it is functional, cell-based. For orientation: A reporter such as luciferase makes a cellular process visible.
Turning to `C1=C(c2ccc(OCc3ccccc3)c(OCc3ccccc3)c2)CC2CCCCC2C1` (stereo not drawn), the result was inactive.

Take `O=C(O)c1cnc2cc(OCCOc3ccc(F)cc3)ccc2c1O`: the outcome was inactive.

For `COc1ccc(/C(C)=N/NC(=O)CC(=O)N(C(=O)c2ccccc2)c2ccc(C)cc2)cc1`, the result was inactive.

Take `Cc1cc(C(=O)CCCCCCCCC(=O)O)ccc1O`: the outcome was inactive.

With `O=C(O)c1ccc(C(=O)c2ccc(C(=O)c3ccc(C(=O)O)cc3)cc2)cc1`, the outcome was inactive.

As to `C[C@]12CC[C@H]3[C@@H](CCC4CC(=O)/C(=C\C(F)(F)F)C[C@@]43C)[C@@H]1CC[C@@H]2C(=O)O` (stereo partly drawn), the outcome was inactive.
